In ChEMBL document CHEMBL1201862, “PubChem BioAssay data set” (2004):
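How tested: cells in 96-well plates exposed to compound for 48 hours at five concentrations. GI50 = concentration required for 50% inhibition of growth.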 Activity calls are given as the source filed them. No stated cut-off is given here; in the data, active = GI50 up to about 1.1 µM and inactive = higher.

Tests used:
Test in all cases: NCI-60 cell line screen, 48 h
[1] = system: A498
[2] = system: SF-539
[3] = system: T47D
[4] = system: HT-29
[5] = system: OVCAR-8
[6] = system: SF-295
[7] = system: SNB-19
[8] = system: RXF 393
[9] = system: NCI/ADR-RES
[10] = system: KM12
[11] = system: MOLT-4
[12] = system: OVCAR-5
[13] = system: NCI-H226
[14] = system: SR
[15] = system: MDA-MB-435
[16] = system: HCT-116
[17] = system: LOX IMVI
[18] = system: NCI-H23
[19] = system: HCT-15
[20] = system: CCRF-CEM
[21] = system: 786-0
[22] = system: Hs-578T
[23] = system: OVCAR-3
[24] = system: DU-145
[25] = system: HCC 2998
[26] = system: M14
[27] = system: HOP-92
[28] = system: UO-31
[29] = system: UACC-62
[30] = system: U-251
[31] = system: ACHN
[32] = system: K562
[33] = system: SW-620
[34] = system: HOP-62
[35] = system: PC-3
[36] = system: UACC-257
[37] = system: TK-10
[38] = system: SN12C
[39] = system: NCI-H522
[40] = system: COLO 205
[41] = system: EKVX
[42] = system: SF-268
[43] = system: IGROV-1
[44] = system: CAKI-1
[45] = system: BT-549
[46] = system: SK-MEL-2
[47] = system: RPMI-8226
[48] = system: OVCAR-4
[49] = system: MCF7
[50] = system: HL-60
[51] = system: SK-MEL-28
[52] = system: A549
[53] = system: SK-OV-3
[54] = system: NCI-H460
[55] = system: SK-MEL-5
[56] = system: MDA-N
[57] = system: MDA-MB-231
[58] = system: SNB-75
[59] = system: Malme-3M

O=S(=O)(O)c1ccc(/N=N/c2ccccc2)cc1 was tested, and the GI50 [1] was > 100 µM (inactive), the GI50 [2] was > 100 µM (inactive) and the GI50 [3] was > 100 µM (inactive). The GI50 [4] was > 100 µM (inactive), the GI50 [5] was > 100 µM (inactive) and the GI50 [6] was > 100 µM (inactive). For the same compound, the GI50 [7] was > 100 µM (inactive), the GI50 [8] was > 100 µM (inactive) and the GI50 [9] was > 100 µM (inactive). For the same compound, the GI50 [10] was > 100 µM (inactive), the GI50 [11] was > 100 µM (inactive) and the GI50 [12] was > 100 µM (inactive). The GI50 [13] was > 100 µM (inactive), the GI50 [14] was > 100 µM (inactive) and the GI50 [15] was > 100 µM (inactive). For the same compound, the GI50 [16] was > 100 µM (inactive), the GI50 [17] was > 100 µM (inactive) and the GI50 [18] was > 100 µM (inactive). For the same compound, the GI50 [19] was over 100 µM, the GI50 [20] was > 100 µM (inactive) and the GI50 [21] was > 100 µM (inactive). The GI50 [22] was > 100 µM (inactive), the GI50 [23] was > 100 µM (inactive) and the GI50 [24] was > 100 µM (inactive). For the same compound, the GI50 [25] was > 100 µM (inactive), the GI50 [26] was > 100 µM (inactive) and the GI50 [27] was > 100 µM (inactive). The GI50 [28] was > 100 µM (inactive), the GI50 [29] was > 100 µM (inactive) and the GI50 [30] was > 100 µM (inactive). For the same compound, the GI50 [31] was > 100 µM (inactive), the GI50 [32] was > 100 µM (inactive) and the GI50 [33] was > 100 µM (inactive). For the same compound, the GI50 [34] was > 100 µM (inactive), the GI50 [35] was > 100 µM (inactive) and the GI50 [36] was > 100 µM (inactive). For the same compound, the GI50 [37] was > 100 µM (inactive), the GI50 [38] was > 100 µM (inactive) and the GI50 [39] was > 100 µM (inactive). The GI50 [40] was > 100 µM (inactive), the GI50 [41] was > 100 µM (inactive) and the GI50 [42] was > 100 µM (inactive). For the same compound, the GI50 [43] was > 100 µM (inactive), the GI50 [44] was > 100 µM (inactive) and the GI50 [45] was > 100 µM (inactive). For the same compound, the GI50 [46] was > 100 µM (inactive), the GI50 [47] was > 100 µM (inactive) and the GI50 [48] was > 100 µM (inactive). The GI50 [49] was > 100 µM (inactive), the GI50 [50] was > 100 µM (inactive) and the GI50 [51] was > 100 µM (inactive). The GI50 [52] was > 100 µM (inactive), the GI50 [53] was > 100 µM (inactive) and the GI50 [54] was > 100 µM (inactive). For the same compound, the GI50 [55] was > 100 µM (inactive), the GI50 [56] was > 100 µM (inactive) and the GI50 [57] was > 100 µM (inactive).
For COc1ccc(N2CCN(Cc3c(C(C)=O)[n+]([O-])c4ccccc4[n+]3[O-])CC2)cc1, the GI50 [1] was 44.7 µM (inactive), the GI50 [3] was 57.3 µM (inactive) and the GI50 [4] was 45.6 µM (inactive). The GI50 [5] was 28.7 µM (inactive), the GI50 [6] was 51.8 µM (inactive) and the GI50 [7] was 35.3 µM (inactive). The GI50 [8] was 17 µM (inactive), the GI50 [9] was 24.5 µM (inactive) and the GI50 [10] was 48.1 µM (inactive). For the same compound, the GI50 [12] was 68.2 µM (inactive), the GI50 [13] was 29 µM (inactive) and the GI50 [14] was 37.8 µM (inactive). The GI50 [15] was 32.6 µM (inactive), the GI50 [16] was 49.5 µM (inactive) and the GI50 [17] was 56.4 µM (inactive). The GI50 [18] was 10.6 µM (inactive), the GI50 [19] was 47.1 µM and the GI50 [20] was 61.1 µM (inactive). The GI50 [21] was 53.5 µM (inactive), the GI50 [22] was 25.2 µM (inactive) and the GI50 [23] was > 100 µM (inactive). The GI50 [24] was > 100 µM (inactive), the GI50 [25] was > 100 µM (inactive) and the GI50 [26] was 45.5 µM (inactive). The GI50 [27] was 32.5 µM (inactive), the GI50 [28] was 64.6 µM (inactive) and the GI50 [29] was 71.6 µM (inactive). For the same compound, the GI50 [30] was 45 µM (inactive), the GI50 [31] was 22 µM (inactive) and the GI50 [32] was > 100 µM (inactive). For the same compound, the GI50 [33] was 42.2 µM (inactive), the GI50 [34] was 16.4 µM (inactive) and the GI50 [58] was 15.6 µM (inactive). The GI50 [35] was 87.5 µM (inactive), the GI50 [36] was 29.8 µM (inactive) and the GI50 [59] was 12 µM (inactive). For the same compound, the GI50 [37] was 9.29 µM (inactive), the GI50 [38] was 41.2 µM (inactive) and the GI50 [39] was 36.1 µM (inactive). For the same compound, the GI50 [40] was 60.8 µM (inactive), the GI50 [41] was 75.3 µM (inactive) and the GI50 [42] was 21.1 µM (inactive). For the same compound, the GI50 [43] was 32.4 µM (inactive), the GI50 [44] was > 100 µM (inactive) and the GI50 [45] was 17 µM (inactive). For the same compound, the GI50 [46] was 54.2 µM (inactive), the GI50 [47] was > 100 µM (inactive) and the GI50 [48] was 38.3 µM (inactive). For the same compound, the GI50 [49] was 24.2 µM (inactive), the GI50 [50] was > 100 µM (inactive) and the GI50 [51] was 43.3 µM (inactive). For the same compound, the GI50 [52] was 40.3 µM (inactive), the GI50 [53] was 32.3 µM (inactive) and the GI50 [54] was 87.5 µM (inactive). For the same compound, the GI50 [55] was 37.1 µM (inactive), the GI50 [56] was 36.4 µM (inactive) and the GI50 [57] was 31.2 µM (inactive).
CCOC(=O)[C@@H](NC(=O)OC(C)(C)C)[C@@H](O)C(=O)OCC was tested, and the GI50 [1] was 69.5 µM (inactive), the GI50 [3] was > 100 µM (inactive) and the GI50 [4] was > 100 µM (inactive). For the same compound, the GI50 [5] was > 100 µM (inactive), the GI50 [6] was > 100 µM (inactive) and the GI50 [7] was > 100 µM (inactive). The GI50 [8] was > 100 µM (inactive), the GI50 [9] was > 100 µM (inactive) and the GI50 [10] was > 100 µM (inactive). The GI50 [11] was > 100 µM (inactive), the GI50 [12] was > 100 µM (inactive) and the GI50 [13] was > 100 µM (inactive). For the same compound, the GI50 [14] was > 100 µM (inactive), the GI50 [15] was > 100 µM (inactive) and the GI50 [16] was > 100 µM (inactive). The GI50 [17] was > 100 µM (inactive), the GI50 [18] was > 100 µM (inactive) and the GI50 [19] was over 100 µM. The GI50 [20] was > 100 µM (inactive), the GI50 [21] was > 100 µM (inactive) and the GI50 [22] was > 100 µM (inactive). The GI50 [23] was > 100 µM (inactive), the GI50 [24] was > 100 µM (inactive) and the GI50 [25] was 62.8 µM (inactive). The GI50 [26] was > 100 µM (inactive), the GI50 [27] was > 100 µM (inactive) and the GI50 [28] was > 100 µM (inactive). The GI50 [29] was > 100 µM (inactive), the GI50 [30] was > 100 µM (inactive) and the GI50 [31] was > 100 µM (inactive). For the same compound, the GI50 [32] was > 100 µM (inactive), the GI50 [33] was > 100 µM (inactive) and the GI50 [34] was > 100 µM (inactive). The GI50 [58] was > 100 µM (inactive), the GI50 [35] was > 100 µM (inactive) and the GI50 [36] was > 100 µM (inactive). The GI50 [59] was > 100 µM (inactive), the GI50 [37] was > 100 µM (inactive) and the GI50 [38] was > 100 µM (inactive). The GI50 [40] was > 100 µM (inactive), the GI50 [41] was > 100 µM (inactive) and the GI50 [42] was > 100 µM (inactive). The GI50 [43] was > 100 µM (inactive), the GI50 [44] was > 100 µM (inactive) and the GI50 [45] was > 100 µM (inactive). For the same compound, the GI50 [46] was > 100 µM (inactive), the GI50 [47] was > 100 µM (inactive) and the GI50 [48] was > 100 µM (inactive). For the same compound, the GI50 [49] was > 100 µM (inactive), the GI50 [50] was > 100 µM (inactive) and the GI50 [51] was > 100 µM (inactive). The GI50 [52] was > 100 µM (inactive), the GI50 [53] was > 100 µM (inactive) and the GI50 [54] was > 100 µM (inactive). For the same compound, the GI50 [55] was > 100 µM (inactive), the GI50 [56] was > 100 µM (inactive) and the GI50 [57] was > 100 µM (inactive).
